Test results taken from patent publication US11034666B2, “Anti-inflammatory and antitumor 2-oxothiazoles and 2-oxothiophenes compounds” (Avexxin AS, priority 2013, dated 2021).
Read-outs that look alike come from different tables or passages of the source.

Experiments:
human GVIA iPLA2 = molecular target: T1, human GVIA iPLA2 (Homo sapiens, UniProt O60733); experiment: In vitro mixed micelle assay, GVIA iPLA2; assay type: biochemical; conditions: for inhibition at 0.091 mole fraction: mixed micelles, 0.091 mole fraction of inhibitor, Table 6, read-out: GVIA iPLA2 % Inhib
T1 sequence (O60733 1-806): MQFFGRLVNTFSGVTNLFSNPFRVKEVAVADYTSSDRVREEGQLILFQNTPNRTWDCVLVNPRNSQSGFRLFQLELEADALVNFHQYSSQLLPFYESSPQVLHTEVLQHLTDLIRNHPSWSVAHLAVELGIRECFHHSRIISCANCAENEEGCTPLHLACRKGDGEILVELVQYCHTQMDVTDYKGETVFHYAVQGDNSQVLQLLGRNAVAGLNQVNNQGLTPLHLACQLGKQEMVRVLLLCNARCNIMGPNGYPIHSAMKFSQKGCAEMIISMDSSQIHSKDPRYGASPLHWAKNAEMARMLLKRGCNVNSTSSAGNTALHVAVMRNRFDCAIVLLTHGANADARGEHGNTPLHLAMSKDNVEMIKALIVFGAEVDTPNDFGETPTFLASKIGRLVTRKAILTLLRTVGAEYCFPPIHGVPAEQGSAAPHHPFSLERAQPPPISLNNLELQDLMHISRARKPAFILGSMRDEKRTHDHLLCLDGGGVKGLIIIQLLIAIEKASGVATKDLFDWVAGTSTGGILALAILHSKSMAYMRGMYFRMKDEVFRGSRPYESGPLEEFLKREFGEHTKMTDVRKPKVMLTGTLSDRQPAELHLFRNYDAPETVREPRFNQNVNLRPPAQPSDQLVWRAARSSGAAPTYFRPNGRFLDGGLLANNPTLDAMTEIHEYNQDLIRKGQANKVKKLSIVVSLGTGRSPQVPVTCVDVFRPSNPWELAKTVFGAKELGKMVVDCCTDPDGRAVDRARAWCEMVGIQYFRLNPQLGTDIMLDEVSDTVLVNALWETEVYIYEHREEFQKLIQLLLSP
Protocol: (§1) At first, the percent of inhibition for each PLA2 enzyme at 0.091 mole fraction of each inhibitor was determined. […] The XI(50) is the mole fraction of the inhibitor in the total substrate interface required to inhibit the enzyme activity by 50%. […] (ii) GVI iPLA2 substrate mixed-micelles were composed of 400 μM Triton X-100, 98.3 μM PAPC, and 1.7 μM ^14C-labeled PAPC in buffer containing 100 mM HEPES, pH 7.5, 2 mM ATP, and 4 mM DTT; (iii) GV sPLA2 substrate mixed-micelles were composed of 400 μM Triton X-100, 98.3 μM PAPC, and 1.7 μM ^14C-labeled PAPC in buffer containing 50 mMTris, pH 8.0, and 5 mM […] CaCl2.

human GV sPLA2 = molecular target: T2, human GV sPLA2 (Homo sapiens, UniProt P39877); experiment: In vitro mixed micelle assay, GV sPLA2; assay type: biochemical; conditions: for inhibition at 0.091 mole fraction: mixed micelles, 0.091 mole fraction of inhibitor, Table 6, read-out: GV sPLA2 % Inhib
T2 sequence (P39877 21-138): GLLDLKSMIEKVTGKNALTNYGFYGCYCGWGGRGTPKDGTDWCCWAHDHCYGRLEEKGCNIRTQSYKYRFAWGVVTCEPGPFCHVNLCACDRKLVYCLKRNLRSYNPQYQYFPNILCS
Protocol: as §1

human GIVA cPLA2 = molecular target: T3, human GIVA cPLA2 (Homo sapiens, UniProt P47712); experiment: In vitro vesicle assay, cPLA2; assay type: biochemical
T3 sequence (P47712 1-749): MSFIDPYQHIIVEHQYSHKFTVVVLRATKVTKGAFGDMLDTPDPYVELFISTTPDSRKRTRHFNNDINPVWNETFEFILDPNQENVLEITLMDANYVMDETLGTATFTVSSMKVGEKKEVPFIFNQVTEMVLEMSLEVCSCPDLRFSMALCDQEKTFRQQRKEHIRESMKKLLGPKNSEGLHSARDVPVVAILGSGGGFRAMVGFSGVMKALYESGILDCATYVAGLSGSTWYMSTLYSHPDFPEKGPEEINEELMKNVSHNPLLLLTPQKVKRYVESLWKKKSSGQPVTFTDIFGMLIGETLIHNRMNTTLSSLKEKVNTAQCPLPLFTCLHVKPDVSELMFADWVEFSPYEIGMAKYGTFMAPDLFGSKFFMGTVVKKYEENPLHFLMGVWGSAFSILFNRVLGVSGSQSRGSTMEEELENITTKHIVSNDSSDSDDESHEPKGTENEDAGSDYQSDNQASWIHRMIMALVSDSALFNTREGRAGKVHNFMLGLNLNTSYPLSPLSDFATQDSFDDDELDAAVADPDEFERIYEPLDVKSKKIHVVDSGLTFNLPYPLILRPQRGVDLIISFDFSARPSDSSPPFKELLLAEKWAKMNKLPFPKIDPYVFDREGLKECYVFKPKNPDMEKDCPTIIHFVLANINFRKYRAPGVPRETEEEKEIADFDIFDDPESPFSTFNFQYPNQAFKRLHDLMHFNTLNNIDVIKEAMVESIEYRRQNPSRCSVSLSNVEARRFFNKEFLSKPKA
Protocol: The effect of the oxothiazoles synthesized on GIVA cPLA2 was measured in vesicles as previously described^51,52 with modifications.^53 The results are presented in Table 6 and are in full agreement with those using the micellar assay. […] From both assays, it is clear that the introduction of the ethyl ester group directly on the heterocyclic ring substantially increases the potency of inhibition. This group presumably develops additional interactions within the enzyme's active site. Comparing the results obtained in mixed micelles and in vesicles is obvious that Compound A stands out in this series of oxothiazoles
GIVA cPLA2 was measured as described^51,52 with modifications.^53 In short, recombinant human GIVA cPLA2 enzyme was pre-incubated with DMSO (1%) with or without inhibitor in assay buffer (80 sec at 37° C., 10 min at 25° C.). Lipid vesicles of L-α-1-palmitoyl-2-arachidonyl-[arachidonyl-1-^14C]-phosphatidylcholine (4.3 nmol) were dried under a steam of N2 (g). The dried lipid was re-suspended in 2 ml assay buffer and sonicated twice (7 min, output 3.5 and 50% duty cycles, on ice) in a Branson Sonifier 250 (Branson Ultrasonic Corporation, Danbury, Conn.). Sonicated lipid (0.2 μM) was added to the reaction and incubated for 1 h at 37° C. followed by addition of a chloroform/methanol stop buffer to terminate the enzymatic reaction. The reaction mixture was separated by centrifugation (5 min, 1640×g). The lower phase was transferred to a glass tube and dried under a steam of N2 (g), re-suspended in chloroform/methanol (9:1, by volume) and applied to a silica gel. Free [1-^14C]arachidonic acid and, L-α-1-palmitoyl-2-arachidonyl-[arachidonyl-1-^14C]-phosphatidylcholine were separated by thin layer chromatography and analyzed as previously described.^54

PGE2 = experiment: PGE2-assay (Tables 2 and 4); assay type: cell-based; conditions: Table 2; head says % inhibition, cells print μM
Excerpt: Experimental procedures suitable for the formation and testing of these compounds can be found in WO2011/039365 as well as references cited therein.

[1] = % inhibition at 1 μM oxothiazole, read-out: cPLA2 vesicle assay % Inhib
[2] = tested 0-5 μM, Tables 2 and 4, read-out: cPLA2 in vitro assay (0-5 μM) IC50
[3] = vesicles assay, read-out: IC50 on GIVA cPLA2 in vesicles assay
[4] = inhibitors tested in 0-3 μM range, read-out: cPLA2 vesicle assay IC50 (μm)

| Compound | inhibition at 0.091 mole fraction (human GVIA iPLA2) [%] | inhibition at 0.091 mole fraction (human GV sPLA2) [%] | inhibition at 1 µM (human GIVA cPLA2; [1]) [%] | IC50 (human GIVA cPLA2; [2]) [µM] | inhibition at 1 µM (human GIVA cPLA2; at 1 μM, printed in the IC50 column of Table 2, read-out: cPLA2 in vitro assay, % inh at 1 μM) [%] | IC50 (human GIVA cPLA2; [4]) [µM] | melting point [°C] | GVIA iPLA2 % Inhibition (human GVIA iPLA2; Tables 2 and 4) [%] | GV sPLA2 % Inhibition (human GV sPLA2; Tables 2 and 4) [%] | IC50 (human GIVA cPLA2; [3]) [µM] | IC50 (PGE2) [µM] |
| --- | --- | --- | --- | --- | --- | --- | --- | --- | --- | --- | --- |
| CCCCCCCCc1ccc(OCC(=O)c2nc(C(=O)OC)cs2)cc1 [Compound A, Methyl 2-(2-(4-octylphenoxy)acetyl)thiazole-4-carboxylate] | 86 | 41 | 74 | ~0.3 | – | – | – | 86.4 | 41.1 | 0.3 | ~0.75 |
| O=C(COc1ccc(-c2ccccc2)cc1)c1nccs1 [Compound B, 2-(Biphenyl-4-yloxy)-1-(thiazol-2-yl)ethanone] | 23 | 41 | 26 | – | 35 | > 3 | 130 to 133 | – | – | – | ~6 |
| O=C(COc1ccc(F)cc1)c1nccs1 [Compound C, 2-(4-Fluorophenoxy)-1-(thiazol-2-yl)ethanone] | 5 | 4 | 7 | > 5 | – | > 3 | 74 to 77 | – | – | – | – |
| O=C(COc1ccccc1)c1nccs1 [Compound D, 2-Phenoxy-1-(thiazol-2-yl)ethanone] | 13 | 0 | 26 | > 5 | – | > 3 | 77 to 79 | – | – | – | – |

Continued, in another order:

| inhibition at 0.091 mole fraction (human GVIA iPLA2) [%] | inhibition at 0.091 mole fraction (human GV sPLA2) [%] | inhibition at 1 µM (human GIVA cPLA2; [1]) [%] | IC50 (human GIVA cPLA2; [2]) [µM] | inhibition at 1 µM (human GIVA cPLA2; at 1 μM, printed in the IC50 column of Table 2, read-out: cPLA2 in vitro assay, % inh at 1 μM) [%] | IC50 (human GIVA cPLA2; [4]) [µM] | melting point [°C] | Compound | GVIA iPLA2 % Inhibition (human GVIA iPLA2; Tables 2 and 4) [%] | GV sPLA2 % Inhibition (human GV sPLA2; Tables 2 and 4) [%] | IC50 (human GIVA cPLA2; [3]) [µM] | IC50 (PGE2) [µM] |
| --- | --- | --- | --- | --- | --- | --- | --- | --- | --- | --- | --- |
| 67 | 46 | 43 | – | – | – | – | CCCCCCCCc1ccc(OCC(=O)c2nccs2)cc1 [Compound T, 2-(4-Octylphenoxy)-1-(thiazol-2-yl)ethanone] | – | – | 1.2 | – |
| 92 | 48 | 21 | – | – | > 3 | – | CCCCCCCCCCCCOCC(=O)c1nc(C(=O)OCC)cs1 [Compound W, Ethyl 2-(2-(dodecyloxy)acetyl)thiazole-4-carboxylate] | – | – | – | – |
| 91 | 55 | 0 | – | – | – | – | CCCCCCCCCCCCOCC(=O)c1nc(CC(=O)OCC)cs1 [Compound X, Ethyl 2-(2-(2-(dodecyloxy)acetyl)thiazol-4-yl)acetate] | – | – | – | – |
| 76 | 50 | 25 | – | – | > 3 | – | CCCCCCCCc1ccc(OCC(=O)c2nc(CC(=O)OCC)cs2)cc1 [Compound Y, Ethyl 2-(2-(2-(4-octylphenoxy)acetyl)thiazol-4-yl)acetate] | – | – | – | – |
